Reference: PubChem BioAssay (NCI)
“And” between values parts separate entries of the source, which are not always exact repeats. Equal entries are not always repeated.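 Test compounds were applied to cells in 96-well plates for 48 hours at 5 doses. Abbreviation: GI50, concentration required for 50% inhibition of growth. TGI is the concentration that stops growth completely.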 Where a SMILES comes first, the peptide text is derived from it. [ ]: non-standard residue; d: D form. The star is where a group is joined. ξ: configuration not given here. NMeF = CN[C@@H](Cc1ccccc1)C(=O)O; NMeV = CN[C@H](C(=O)O)C(C)C; ξNMeV = CNC(C(=O)O)C(C)C; Boc = CC(C)(C)OC(=O)*; OBn = c1ccc(CO*)cc1

Legend:
Assay in all cases: NCI-60 cell line screen, 48 h
IGROV1 ovarian = tested on: IGROV1 ovarian
A549 NSCLC = tested on: A549 NSCLC
DU-145 prostate = tested on: DU-145 prostate
SF-295 CNS = tested on: SF-295 CNS
SK-OV-3 ovarian = tested on: SK-OV-3 ovarian
CAKI-1 renal = tested on: CAKI-1 renal
HCT-15 colon = tested on: HCT-15 colon
RPMI-8226 leukemia = tested on: RPMI-8226 leukemia
HL-60(TB) leukemia = tested on: HL-60(TB) leukemia
CCRF-CEM leukemia = tested on: CCRF-CEM leukemia

SMILES | TGI (IGROV1 ovarian) | TGI (A549 NSCLC) | TGI (DU-145 prostate) | TGI (SF-295 CNS) | TGI (SK-OV-3 ovarian) | TGI (CAKI-1 renal) | TGI (HCT-15 colon) | TGI (RPMI-8226 leukemia) | TGI (HL-60(TB) leukemia) | TGI (CCRF-CEM leukemia) | GI50 (HCT-15 colon)
COc1ccc(-c2cc(-c3ccc(Nc4ccnc5cc(Cl)ccc45)cc3)[nH]c(=O)c2C#N)cc1 | > 100 µM | > 100 µM | > 100 µM | > 100 µM | > 100 µM | > 100 µM | > 100 µM | > 100 µM | > 100 µM | – | –
CC(C)C(C(=O)N(C)[C@H](C(=O)N1CCC[C@H]1C(=O)N(C)[C@@H](Cc1ccccc1)C(=O)OCc1ccccc1)C(C)C)N(C)C(=O)[C@@H](NC(=O)OC(C)(C)C)C(C)C (stereo partly specified) (Boc-V[ξNMeV][NMeV]P[NMeF]-OBn) | > 31.6 µM | > 31.6 µM | – | > 31.6 µM | > 31.6 µM | > 31.6 µM | > 31.6 µM | > 31.6 µM | 8.25 µM | > 31.6 µM | –
CCNC(=S)NNC(=O)c1ccccc1Nc1ccccc1C(=O)NNC(=S)NCC | > 100 µM | > 100 µM | > 100 µM | > 100 µM | > 100 µM | – | > 100 µM | > 100 µM | > 100 µM | > 100 µM | –
O=S(O)c1cc(Cl)c(O)c(Cl)c1 | – | – | – | – | > 100 µM | – | – | – | > 100 µM | > 100 µM | –
Cc1cc(C)c2c(n1)S(=O)(=O)N(CCCN1CCN(c3cccc(Cl)c3)CC1)/C(=C(\O)c1ccc(Br)cc1)C2=O | > 100 µM | 71 µM | > 100 µM | 86 µM | > 100 µM | 49.4 µM | > 100 µM | – | 45.4 µM | > 100 µM | –
O=c1[nH]c2ccc(CC(=S)N3CCOCC3)cc2o1 | > 100 µM | – | – | > 100 µM | > 100 µM | > 100 µM | > 100 µM | – | > 100 µM | > 100 µM | –
COc1cc(O)c(Cc2ccccc2O)c(O)c1C(=O)CCc1ccccc1 | 29.8 µM | 21.8 µM | – | 16.1 µM | 18.2 µM | 13 µM | 19.9 µM | 9.8 µM | 20 µM | 22.5 µM | –
N#COc1ccc(Oc2ccc(OC#N)cc2)cc1 | > 100 µM | > 100 µM | – | > 100 µM | > 100 µM | > 100 µM | > 100 µM | > 100 µM | > 100 µM | 50.4 µM | –
O=C1CC(c2ccccc2)n2c(nc3ccccc32)N1 (stereo unspecified) | > 100 µM | > 100 µM | – | > 100 µM | > 100 µM | > 100 µM | > 100 µM | > 100 µM | > 100 µM | – | –
COC(=O)c1ccccc1C1CN=NC12Cc1ccc3c(c1C2=O)CCC3 (stereo unspecified) | > 100 µM | > 100 µM | > 100 µM | > 100 µM | > 100 µM | > 100 µM | > 100 µM | – | > 100 µM | > 100 µM | –
CCN(C(=O)N[C@H](C(=O)N[C@@H](CSC)C(=O)N[C@@H](C)C(=O)OC)C(C)C)c1ccccc1 | 23.9 µM | 55 µM | 31.2 µM | 36.7 µM | 30.7 µM | 36.3 µM | 36.2 µM | – | – | 19.3 µM | –
CC1OC(O[C@@H]2C=C3CC[C@@H]4[C@H](CC[C@]5(C)[C@@H](c6ccc(=O)oc6)CC[C@]45O)[C@@]3(C)CC2)C(O)C(OC2OC(CO)C(O)C(O)C2O)C1O (stereo partly specified) | 0.0219 µM and 0.0562 µM | 0.000142 µM | 0.0111 µM | – | – | 0.0015 µM | 0.116 µM and 0.0443 µM | – | – | 0.133 µM | 0.000532 µM
